Target: T1, recombinant human pancreatic GLK (Homo sapiens, UniProt P35557)
T1 sequence (P35557 1-465): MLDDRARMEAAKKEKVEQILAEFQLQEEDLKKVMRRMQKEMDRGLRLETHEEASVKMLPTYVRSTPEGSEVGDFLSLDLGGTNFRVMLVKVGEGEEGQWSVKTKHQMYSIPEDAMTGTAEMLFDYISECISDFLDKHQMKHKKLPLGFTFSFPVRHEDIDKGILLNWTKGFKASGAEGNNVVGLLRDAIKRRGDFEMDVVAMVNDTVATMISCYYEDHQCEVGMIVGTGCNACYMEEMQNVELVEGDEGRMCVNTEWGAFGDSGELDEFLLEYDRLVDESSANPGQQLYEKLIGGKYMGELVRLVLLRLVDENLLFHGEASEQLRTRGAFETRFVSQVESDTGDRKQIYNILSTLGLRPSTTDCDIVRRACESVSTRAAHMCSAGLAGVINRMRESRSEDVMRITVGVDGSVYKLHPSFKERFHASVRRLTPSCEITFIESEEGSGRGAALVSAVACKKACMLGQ
Test: biochemical

Row | Structure (SMILES) | EC50
1 | O=C(Nc1ccc(Cl)cn1)[C@H](COCCO)Oc1ncnc2c1cnn2-c1cccc(Cl)c1Cl [Example 202, (2S)—N-(5-chloropyridin-2-yl)-2-(1-(2,3-dichlorophenyl)-1H-pyrazolo[3,4-d]pyrimidin-4-yloxy)-3-(2-hydroxyethoxy)propanamide] | 340 nM
2 | COCCC(Oc1ncnc2c1cnn2-c1ccccn1)C(=O)Nc1ccc(C)cn1 (centres unmarked) [Example 34, 4-Methoxy-N-(5-methylpyridin-2-yl)-2-[(1-pyridin-2-yl-1H-pyrazolo[3,4-d]pyrimidin-4-yl)oxy]butanamide] | 1900 nM
3 | Cc1ccc(NC(=O)[C@H](COC(C)C)Oc2ncnc3c2cnn3-c2ccccc2S(C)(=O)=O)nc1 [Example 129, (2S)-3-isopropoxy-N-(5-methylpyridin-2-yl)-2-(1-(2-(methylsulfonyl)phenyl)-1H-pyrazolo[3,4-d]pyrimidin-4-yloxy)propanamide] | 1300 nM
4 | COC[C@@H](C)OC[C@H](Oc1ncnc2c1cnn2-c1ccccc1Cl)C(=O)Nc1cnc(C)cn1 [Example 155, (2S)-2-(1-(2-chlorophenyl)-1H-pyrazolo[3,4-d]pyrimidin-4-yloxy)-3-((R)-1-methoxypropan-2-yloxy)-N-(5-methylpyrazin-2-yl)propanamide] | 760 nM
5 | Cc1cnc(NC(=O)[C@H](COC(C)C)Oc2ncnc3c2cnn3-c2nccnc2C)cn1 [Example 106, (2S)-3-Isopropoxy-N-(5-methylpyrazin-2-yl)-2-(1-(3-methylpyrazin-2-yl)-1H-pyrazolo[3,4-d]pyrimidin-4-yloxy)propanamide] | 6900 nM
6 | COCCC(Oc1ncnc2c1cnn2-c1ccccc1Cl)C(=O)Nc1ccc(C)cn1 (centres unmarked) [Example 19, 2-{[1-(2-Chlorophenyl)-1H-pyrazolo[3,4-d]pyrimidin-4-yl]oxy}-4-methoxy-N-(5-methylpyridin-2-yl)butanamide] | 95 nM
7 | CCCCC(Oc1ncnc2c1cnn2C)C(=O)Nc1ccc(C)cn1 (centres unmarked) [Example 39, 2-[(1-methyl-1H-pyrazolo[3,4-d]pyrimidin-4-yl)oxy]-N-(5-methylpyridin-2-yl)hexanamide] | 11000 nM
8 | Cc1ccc(NC(=O)[C@H](COC2CCC2)Oc2ncnc3c2cnn3-c2ncccc2Cl)nc1 [Example 158, (2S)-2-(1-(3-chloropyridin-2-yl)-1H-pyrazolo[3,4-d]pyrimidin-4-yloxy)-3-cyclobutoxy-N-(5-methylpyridin-2-yl)propanamide] | 150 nM
9 | COCC[C@@H](Oc1ncnc2c1cnn2-c1ccccn1)C(=O)Nc1ccc(C)cn1 [(R)-4-methoxy-N-(5-methyl-2-pyridyl)-2-[1-(2-pyridyl)pyrazolo[4,5-e]pyrimidin-4-yl]oxy-butanamide] | > 100000 nM
10 | CCOC[C@H](Oc1ncnc2c1cnn2-c1ncccc1C)C(=O)Nc1ccc(Cl)cn1 [Example 128a, (2S)—N-(5-chloropyridin-2-yl)-3-ethoxy-2-(1-(3-methylpyridin-2-yl)-1H-pyrazolo[3,4-d]pyrimidin-4-yloxy)propanamide] | 620 nM
11 | Cc1ccc(NC(=O)C(CCS(C)(=O)=O)Oc2ncnc3c2cnn3-c2ccccc2Cl)nc1 (centres unmarked) [Example 9, 2-{[1-(2-chlorophenyl)-1H-pyrazolo[3,4-d]pyrimidin-4-yl]oxy}-N-(5-methylpyridin-2-yl)-4-(methylsulfonyl)butanamide] | 520 nM
12 | CC(C)OCC(Oc1ncnc2c1cnn2-c1ccccc1Cl)C(=O)Nc1ncns1 (centres unmarked) [Example 114, 2-[1-(2-chlorophenyl)pyrazolo[4,5-e]pyrimidin-4-yl]oxy-3-isopropoxy-N-(1,2,4-thiadiazol-5-yl)propanamide] | 2100 nM
13 | Cc1ccc(NC(=O)[C@H](CCS(C)(=O)=O)Oc2ncnc3c2cnn3-c2ccccc2Cl)nc1 [Example 161, -(2S)-2-(1-(2-chlorophenyl)-1H-pyrazolo[3,4-d]pyrimidin-4-yloxy)-N-(5-methylpyridin-2-yl)-4-(methylsulfonyl)butanamide] | 610 nM
14 | CC(C)OC[C@H](Oc1ncnc2c1cnn2-c1ccccc1Cl)C(=O)Nc1ccc(Cl)cn1 [Example 115a, (2S)-2-[1-(2-chlorophenyl)pyrazolo[4,5-e]pyrimidin-4-yl]oxy-N-(5-chloro-2-pyridyl)-3-isopropoxy-propanamide] | 98 nM
15 | Cc1cnc(NC(=O)[C@H](COC2CCC2)Oc2ncnc3c2cnn3-c2ccccc2S(C)(=O)=O)cn1 [Example 140, (2S)-3-cyclobutoxy-N-(5-methylpyrazin-2-yl)-2-(1-(2-(methylsulfonyl)phenyl)-1H-pyrazolo[3,4-d]pyrimidin-4-yloxy)propanamide] | 1200 nM
16 | Cc1ccc(C#N)cc1-n1ncc2c(O[C@@H](COCCO)C(=O)Nc3ccc(C#N)cn3)ncnc21 [Example 183, (2S)-2-(1-(5-cyano-2-methylphenyl)-1H-pyrazolo[3,4-d]pyrimidin-4-yloxy)-N-(5-cyanopyridin-2-yl)-3-(2-hydroxyethoxy)propanamide] | 7700 nM

Row | Structure (SMILES) | EC50
17 | O=C(Nc1ccc(Cl)cn1)[C@H](CN1CC(O)C1)Oc1ncnc2c1cnn2-c1ccccc1Cl [Example 226, (2S)-2-[1-(2-chlorophenyl)pyrazolo[3,4-d]pyrimidin-4-yl]oxy-N-(5-chloro-2-pyridyl)-3-(3-hydroxyazetidin-1-yl)propanamide] | 130 nM
18 | COCC[C@H](Oc1ncnc2c1cnn2-c1ccc(F)cc1F)C(=O)Nc1ccc(C)cn1 [Example 27, (S)-2-{[1-(2,4-difluorophenyl)-1H-pyrazolo[3,4-d]pyrimidin-4-yl]oxy}-4-methoxy-N-(5-methylpyridin-2-yl)butanamide] | 1000 nM
19 | CC(C)OC[C@H](Oc1ncnc2c1cnn2-c1ncccc1Cl)C(=O)Nc1ccc(Cl)cn1 [Example 127i, (2S)—N-(5-chloro-2-pyridyl)-2-[1-(3-chloro-2-pyridyl)pyrazolo[4,5-e]pyrimidin-4-yl]oxy-3-isopropoxy-propanamide] | 360 nM
20 | Cc1nnc(NC(=O)C(COC(C)C)Oc2ncnc3c2cnn3-c2ccccc2Cl)o1 (centres unmarked) [2-[1-(2-chlorophenyl)pyrazolo[4,5-e]pyrimidin-4-yl]oxy-3-isopropoxy-N-(5-methyl-1,3,4-oxadiazol-2-yl)propanamide] | > 100000 nM
21 | CCOC[C@H](Oc1ncnc2c1cnn2-c1ccccc1C(F)(F)F)C(=O)Nc1ccc(C#N)cn1 [Example 132, (2S)—N-(5-cyanopyridin-2-yl)-3-ethoxy-2-[1-[2-(trifluoromethyl)phenyl]pyrazolo[4,5-e]pyrimidin-4-yl]oxypropanamide] | 470 nM
22 | C[C@H](CO)OC[C@H](Oc1ncnc2c1cnn2-c1ncccc1Cl)C(=O)Nc1ccc(C#N)cn1 [Example 189, (2S)-2-(1-(3-chloropyridin-2-yl)-1H-pyrazolo[3,4-d]pyrimidin-4-yloxy)-N-(5-cyanopyridin-2-yl)-3-((R)-1-hydroxypropan-2-yloxy)propanamide] | 600 nM
23 | COCCC(Oc1ncnc2c1cnn2C(C)C)C(=O)Nc1ccc(C)cn1 (centres unmarked) [Example 76, 2-[(1-isopropyl-1H-pyrazolo[3,4-d]pyrimidin-4-yl)oxy]-4-methoxy-N-(5-methylpyridin-2-yl)butanamide] | ≥ 100000 nM
24 | O=C(Nc1ccccn1)[C@H](COCCO)Oc1ncnc2c1cnn2-c1ccccc1C(F)(F)F [Example 199, (2S)-3-(2-hydroxyethoxy)-N-(pyridin-2-yl)-2-(1-(2-(trifluoromethyl)phenyl)-1H-pyrazolo[3,4-d]pyrimidin-4-yloxy)propanamide] | 1100 nM
25 | CC(C)OCC(Oc1ncnc2c1cnn2-c1ccccc1Cl)C(=O)Nc1ccncn1 (centres unmarked) [Example 120, 2-[1-(2-chlorophenyl)pyrazolo[4,5-e]pyrimidin-4-yl]oxy-3-isopropoxy-N-pyrimidin-4-yl-propanamide] | 540 nM
26 | CCOC[C@H](Oc1ncnc2c1cnn2-c1ncccc1Cl)C(=O)Nc1ccncn1 [Example 127f, (2S)-2-[1-(3-chloro-2-pyridyl)pyrazolo[4,5-e]pyrimidin-4-yl]oxy-3-ethoxy-N-pyrimidin-4-yl-propanamide] | 1100 nM
27 | Cc1cc(NC(=O)C(COC(C)C)Oc2ncnc3c2cnn3-c2ccccc2Cl)no1 (centres unmarked) [Example 110, 2-[1-(2-chlorophenyl)pyrazolo[4,5-e]pyrimidin-4-yl]oxy-3-isopropoxy-N-(5-methylisoxazol-3-yl)propanamide] | 1000 nM
28 | Cc1cnc(NC(=O)[C@H](CN2CC(O)C2)Oc2ncnc3c2cnn3-c2c(Cl)cccc2C#N)cn1 [Example 239, (2S)-2-[1-(2-chloro-6-cyano-phenyl)pyrazolo[3,4-d]pyrimidin-4-yl]oxy-3-(3-hydroxyazetidin-1-yl)-N-(5-methylpyrazin-2-yl)propanamide] | 490 nM
29 | COC[C@H](Oc1ncnc2c1cnn2-c1ccc(F)cc1Cl)C(=O)Nc1cnc(C)cn1 [Example 95, (2S)-2-(1-(2-chloro-4-fluorophenyl)-1H-pyrazolo[3,4-d]pyrimidin-4-yloxy)-3-methoxy-N-(5-methylpyrazin-2-yl)propanamide] | 39000 nM
30 | COCC(Oc1ncnc2c1cnn2-c1ccccc1Cl)C(=O)Nc1ccc(C)cn1 (centres unmarked) [Example 1, 2-{[1-(2-chlorophenyl)-1H-pyrazolo[3,4-d]pyrimidin-4-yl]oxy}-3-methoxy-N-(5-methylpyridin-2-yl)propanamide] | 620 nM
31 | O=C(Nc1ccccn1)[C@H](COCCO)Oc1ncnc2c1cnn2-c1ccccc1Cl [Example 201, (2S)-2-(1-(2-chlorophenyl)-1H-pyrazolo[3,4-d]pyrimidin-4-yloxy)-3-(2-hydroxyethoxy)-N-(pyridin-2-yl)propanamide] | 650 nM
32 | COCC[C@H](Oc1ncnc2c1cnn2-c1ncccc1Cl)C(=O)Nc1ccc(C)cn1 [Example 102, (2S)-2-(1-(3-Chloropyridin-2-yl)-1H-pyrazolo[3,4-d]pyrimidin-4-yloxy)-4-methoxy-N-(5-methylpyridin-2-yl)butanamide] | 130 nM
